The values that follow come from patent publication US12473295B2, “Substituted straight chain spiro derivatives” (Janssen Pharmaceutica NV, priority 2019, dated 2025).

pIC50: −log10 of the molar value. Structures can show the parent of a compound that is named as a salt. Where two headings read alike, the source gives them in different places.

The test system of one data set is OCI-AML3 cells. Nature of the data set: Proliferation assay (spheroid growth, 8 days), OCI-AML3. Format: cell-based, human. The note with it: OCI-AML3, 8 days. The method, boiled down: (§1)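 200 MOLM14 (MLL-AF9), 200 OCI-AML3 (NPM1c) or 300 KO-52 (MLL wildtype) cells were grown as spheroids in ultra-low attachment wells with compound, 0.3% DMSO, for 8 days at 37 °C. Confluence was imaged on day 8, normalized to DMSO and top-dose reference compound. IC50 came from a variable-slope fit constrained 0–100%.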

The nature of data set [1]: Metabolic stability in mouse liver microsomes. It is filed as in vitro ADME. The conditions noted are these: mouse liver microsomes 0.5 mg/mL, 1 μM test compound, pH 7.4; for microsomal CLint at 1 μM: read-out: Mouse LM Clint. The method, then: (§2) 4) Metabolic Stability in Human/Mouse Liver Microsomes
(§3) The objective of this study is to measure in vitro metabolic stability of test compound(s) in human and mouse liver microsomes and provide quantitative information on the rate of metabolic turnover (i.e. determination of the apparent intrinsic clearance of test).
(§4) Test items were prepared at a stock concentration of 10 mM in DMSO. For determination of metabolic turnover, a final working solution was prepared by adding 2 μL of 10 mM DMSO stock solution for test compound or positive control compounds to 198 μL of acetonitrile (100 μM final concentration).
(§5) Incubations were performed as follows: First, liver microsomes were thawed on ice and a master solution containing liver microsomes in 100 mM PBS (phosphate-buffered saline) at pH 7.4 is prepared. Next, the liver microsomes solution was added to the incubation plates and 10 mM NADPH (Nicotinamide-adenine dinucleotide phosphate) was added (MW: 833.4 g/mol; Roche Diagnostics GmbH, Germany. Dissolved in phosphate buffer (100 mmol/L, pH 7.4)). The mixture was mixed for 10 seconds and pre-warmed in the incubation plate at 37° C. for 10 minutes. The metabolic reaction was initiated with the addition of 5 μL of the 100 μM working solution for test compound or positive control compounds to incubation plate (final test item concentration=1 μM). The reaction final mixture should contain 1 mM NADPH, 0.5 mg/mL microsomes protein and 1 μM test compound or positive control compound in 100 mM PBS at pH 7.4. The percentage of organic solvent in incubation mixture is 1% with DMSO ≤0.02%.
(§6) The reaction was quenched by transferring 50 μL of the incubated mixture at selected time points into the quenching plate containing 200 μL of cold methanol. After sampling of all the timepoints the quenching plate was centrifuged at 4000 rpm for 40 minutes to precipitate protein. A total of 90 μL of the supernatant was transferred to an analysis plate and ultra-pure H2O water is added into each well for LC/MS/MS analysis. All incubations and analysis were performed in duplicate.
(§7) All calculations were carried out using Microsoft Excel. The slope value, k, was determined by linear regression of the natural logarithm of the remaining percentage of the parent drug vs. incubation time curve.
(§8) The in vitro half-life (in vitro tin) was determined from the slope value: in vitro t1/2=−(0.693/k)
(§9) Conversion of the in vitro tin (in min) into the in vitro intrinsic clearance (in vitro CLint, in μL/min/mg proteins) was done using the following equation: […]

The next data set relates to MOLM14 cells. Nature of the data set: Proliferation assay (spheroid growth, 8 days), MOLM14.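 Further: spheroid size read as confluence by live-cell imaging, compounds added at a range of concentrations with 0.3% DMSO, DMSO-treated wells = 0%, highest reference dose = low control.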 Format: cell-based, human. The note with it: MOLM14, 8 days, read-out: spheroid assay_OneTime MOLM14 IC50.
Data set [2] has as its target menin/MLL (terbium chelate-labeled menin, FITC-MBM1 peptide) (Homo sapiens (Human), UniProt O00255). Nature of the data set: Menin/MLL homogenous time-resolved fluorescence (HTRF) assay.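 Further: IC50 from percent inhibition of HTRF signal, normalized between wells without competitor and wells with a saturating competitor that displaces FITC-MBM1 from His-tagged menin.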 It is filed as binding.
Data set [3] can be described thus: Metabolic stability in human liver microsomes. It is filed as in vitro ADME. The note with it: human liver microsomes 0.5 mg/mL, 1 μM test compound, pH 7.4. As to the method: as §2, §3, §4, §5, §6, §7, §8, §9
In another data set the test system is KO-52 cells. Nature of the data set: Proliferation assay (spheroid growth, 8 days), KO-52 control cell line. It is filed as cell-based, human. The conditions noted are these: read-out: spheroid assay_OneTime KO-52 IC50. Summed up: as §1
Another data set relates to MEIS1 mRNA. Nature of the data set: MEIS1 mRNA expression assay (Quantigene Singleplex) in MOLM14 cells.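 Further: MEIS1 transcript levels read by probe hybridization and normalized to RPL28 mRNA, with IC50 fitted to fold changes across a rising compound concentration series.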 It is filed as cell-based, human. The conditions noted are these: 48 hours incubation.
Data set [4] in a line: Mouse PK (in vivo T1/2 and oral bioavailability). The conditions noted are these: fasted male CD-1 mice, formulating agent HP-β-CD; for half-life: single IV 0.5 or 1.0 mg/kg; for bioavailability: single PO 5 mg/kg. As to the method:
3) Mouse PK (In Vivo T1/2 and Oral Bioavailability)
In vivo pharmacokinetics (PK) were assessed in fasted male CD-1 mice (age 6-8 weeks) following a single intravenous (IV, 0.5 or 1.0 mg/kg administered at 2.5 ml/kg) or oral (PO, 5 mg/kg administered at 10 ml solution/kg) dose of test article formulated in a 20% (w:vol) HP-β-CD solution or in Pyrogen free water.
Plasma and/or whole blood samples were collected from the dorsal metatarsal vein at desired timepoints via serial capillary microsampling (approx. 0.03 mL) using EDTA as an anticoagulant. Concentrations of compound in the plasma and blood samples were analyzed using a qualified LC-MS/MS method. In silico analysis of main pharmacokinetic parameters was performed using WinNonlin (Phoenix™, version 6.1) or similar software. (Results see Table 4)

For a further data set, the target named is hERG potassium channel (Homo sapiens (Human), UniProt Q12809). Nature of the data set: Effect on membrane potassium current IKr in hERG transfected CHO cells, Protocol 1 (QPatch). It is filed as cell-based. As to the method:
8) Effect on the Membrane Potassium Current IKr in hERG Transfected Cell Lines
• CHO Chinese hamster ovary cell line • DMSO Dimethylsulfoxide • hERG human ether-á-go-go-related gene • IKr rapidly activating delayed-rectifier K^+ current Methods
Experiments were performed using CHO cells stably expressing the hERG potassium channel. Cells were grown at 37° C. and 5% CO2 in culture flasks in Ham's F12 Medium supplemented with 10% heat-inactivated fetal calf serum, hygromycin B (100 μg/ml) and geneticin (100 μg/ml). For use in the automated patch-clamp system QPatch (Sophion) cells were harvested to obtain cell suspension of single cells.
Solutions: The bath solution contained (in mM) 145 NaCl, 4 KCl, 10 glucose, 10 HEPES ((4-(2-hydroxyethyl)-1-piperazineethanesulfonic acid), 2 CaCl2 and 1 MgCl2 (pH 7.4 with NaOH). The pipette solution contained (in mM) 120 KCl, 10 EGTA (Ethylene glycol-bis(2-aminoethylether)-N,N,N′,N′-tetraacetic acid), 10 HEPES, 5.374 CaCl2 and 1.75 MgCl2 (pH 7.2 with KOH).
Patch-clamp experiments were performed in the voltage-clamp mode and whole-cell currents were recorded with an automated patch-clamp assay utilizing the QPatch system (Sophion). Current signals were amplified and digitized, stored and analyzed by using the QPatch assay software.
The holding potential was −80 mV. The hERG current (K^+-selective outward current) was determined as the maximal tail current at −40 mV after a 2 second depolarization to +60 mV. Pulse cycling rate was 15 s. A short pulse (90 ms) to −40 mV served as a baseline step to calculate the tail current amplitude. After establishing whole-cell configuration and a stability period, the solvent control (0.3% DMSO) was applied for 5 minutes followed by the test substance by four increasing concentrations of 3×10^−7 M, 3×10^−6 M, 10^−5 M and 3×10^−5 M. Each concentration of the test substance was applied twice. The effect of each concentration was determined after 5 min as an average current of 3 sequential voltage pulses. To determine the extent of block the residual current was compared with vehicle pre-treatment.
Concentration/response relations were calculated by non-linear least-squares fits to the individual data points. The half-maximal inhibiting concentration (IC50) was calculated by the fitting routine.

The mark [5] stands for this setting: HTRF-30 min incubation IC50, 30 min incubation.

hERG potassium channel, sequence (Q12809 whole entry): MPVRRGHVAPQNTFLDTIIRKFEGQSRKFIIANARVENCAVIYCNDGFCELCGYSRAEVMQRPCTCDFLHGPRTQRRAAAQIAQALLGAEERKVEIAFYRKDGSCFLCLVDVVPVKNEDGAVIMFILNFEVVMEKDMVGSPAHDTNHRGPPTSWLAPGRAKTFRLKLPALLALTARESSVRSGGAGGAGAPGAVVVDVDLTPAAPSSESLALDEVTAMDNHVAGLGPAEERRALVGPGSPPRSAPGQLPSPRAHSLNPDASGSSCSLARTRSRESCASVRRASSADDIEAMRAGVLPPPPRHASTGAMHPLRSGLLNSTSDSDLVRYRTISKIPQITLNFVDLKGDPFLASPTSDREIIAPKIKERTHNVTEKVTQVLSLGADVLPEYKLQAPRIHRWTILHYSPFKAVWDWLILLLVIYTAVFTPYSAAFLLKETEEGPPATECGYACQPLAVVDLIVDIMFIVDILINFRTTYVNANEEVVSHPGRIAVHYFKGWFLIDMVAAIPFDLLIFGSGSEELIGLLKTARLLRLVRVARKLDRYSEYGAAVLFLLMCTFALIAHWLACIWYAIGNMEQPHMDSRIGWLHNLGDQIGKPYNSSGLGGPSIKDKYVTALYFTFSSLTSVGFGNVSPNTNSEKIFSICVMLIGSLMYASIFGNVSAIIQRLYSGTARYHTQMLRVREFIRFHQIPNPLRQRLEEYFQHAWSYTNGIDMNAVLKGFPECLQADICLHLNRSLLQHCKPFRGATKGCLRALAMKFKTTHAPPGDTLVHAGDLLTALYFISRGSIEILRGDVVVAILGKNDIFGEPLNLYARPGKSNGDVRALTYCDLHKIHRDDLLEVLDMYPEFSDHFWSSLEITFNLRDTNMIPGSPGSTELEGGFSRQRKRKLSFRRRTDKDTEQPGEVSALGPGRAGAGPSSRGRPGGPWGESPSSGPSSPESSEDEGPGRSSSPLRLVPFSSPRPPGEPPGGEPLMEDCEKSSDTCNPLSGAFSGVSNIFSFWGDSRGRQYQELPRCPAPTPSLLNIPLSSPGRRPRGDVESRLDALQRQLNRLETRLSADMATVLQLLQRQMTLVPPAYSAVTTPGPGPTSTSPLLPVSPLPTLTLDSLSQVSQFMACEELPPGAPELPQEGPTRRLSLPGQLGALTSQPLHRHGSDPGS
menin/MLL (terbium chelate-labeled menin, FITC-MBM1 peptide), sequence (O00255 other isoform, or with tags, fused parts or gaps): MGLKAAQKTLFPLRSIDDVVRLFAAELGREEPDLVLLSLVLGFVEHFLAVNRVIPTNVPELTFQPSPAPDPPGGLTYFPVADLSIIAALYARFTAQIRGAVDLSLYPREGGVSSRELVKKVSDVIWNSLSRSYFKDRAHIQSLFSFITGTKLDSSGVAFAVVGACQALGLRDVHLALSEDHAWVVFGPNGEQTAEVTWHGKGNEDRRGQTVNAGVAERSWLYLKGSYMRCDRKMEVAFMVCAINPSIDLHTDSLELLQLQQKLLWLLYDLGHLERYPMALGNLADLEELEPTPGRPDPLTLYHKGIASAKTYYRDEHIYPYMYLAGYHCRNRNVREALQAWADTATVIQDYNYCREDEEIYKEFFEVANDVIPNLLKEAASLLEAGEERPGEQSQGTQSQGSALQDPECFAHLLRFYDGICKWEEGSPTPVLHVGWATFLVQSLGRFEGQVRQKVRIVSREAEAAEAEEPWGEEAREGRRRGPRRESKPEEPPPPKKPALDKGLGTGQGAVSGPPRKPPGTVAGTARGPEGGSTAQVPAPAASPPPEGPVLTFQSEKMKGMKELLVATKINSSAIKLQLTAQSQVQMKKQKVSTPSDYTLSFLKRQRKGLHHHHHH

Take `CCN(C(=O)c1cc(F)ccc1Oc1nncnc1N1CCC2(C1)CN([C@H](CCCN(C)C(COC)COC)C(C)C)C2)C(C)C` [Compound 161, (R)-2-((5-(2-(6-((1,3-dimethoxypropan-2-yl)(methyl)amino)-2-methylhexan-3-yl)-2,6-diazaspiro[3.4]octan-6-yl)-1,2,4-triazin-6-yl)oxy)-N-ethyl-5-fluoro-N-isopropylbenzamide fumarate]: the negative-log IC50 (pIC50) was 7.26 in the data set on OCI-AML3 cells (Homo sapiens, OCI-AML-3, […]); 7.80 with MOLM14 cells (Homo sapiens, MOLM-14, […]); 9.64 in data set [2] (setting [5]); below 4.82 in the data set on KO-52 cells (Homo sapiens, […]); 7.39 in the data set with MEIS1 mRNA (Homo sapiens, MOLM-14, 48 h). For the same molecule, the values for the microsomal CLint at 1 μM in data set [1] and in [3] (read-out: Human LM Clint) were 55 µL/min/mg and 70 µL/min/mg, respectively.

For the molecule `CCN(C(=O)c1cc(F)ccc1Oc1nncnc1N1CCC2(C1)CN([C@H](CCO)C(C)C)C2)C(C)C` (single isomer, unassigned) [Compound 214, (*R)—N-ethyl-5-fluoro-2-((5-(2-(1-hydroxy-4-methylpentan-3-yl)-2,6-diazaspiro[3.4]octan-6-yl)-1,2,4-triazin-6-yl)oxy)-N-isopropylbenzamide], the negative logarithm of the IC50 (pIC50) with OCI-AML3 cells was 6.42; in the data set on MOLM14 cells, 6.92; in data set [2] (read-out: HTRF-30 min incubation IC50, 30 min incubation), 9.31; in the data set on KO-52 cells, below 4.82; with MEIS1 mRNA, 6.85. Besides, the “Mouse LM Clint” value in data set [1] turned out to be 80 µL/min/mg. The “Human LM Clint” value in [3] worked out at 44 µL/min/mg.

Take `CC(C)[C@@H](CCCN(C)C)N1CC2(CCN(c3ncnnc3Oc3ccc(F)cc3C(=O)N(C(C)C)C(C)C)C2)C1` (single isomer, unassigned) [Compound 102, (*R)-2-((5(2-(6-(dimethylamino)-2-methylhexan-3-yl)-2,6-diazaspiro[3.4]octan-6-yl)-1,2,4-triazin-6-yl)oxy)-5-fluoro-N,N-diisopropylbenzamide fumarate]: the pIC50 is 6.96 in the data set on OCI-AML3 cells (Homo sapiens, OCI-AML-3, […]); 7.80 with MOLM14 cells (Homo sapiens, MOLM-14, […]); 9.96 in [2] (setting [5]); below 4.82 with KO-52 cells (Homo sapiens, […]); 7.48 with MEIS1 mRNA (Homo sapiens, MOLM-14, 48 h). Further, the half-life in data set [4] was 660 min. The bioavailability in data set [4] is 9.7%.

As for `CCN(C(=O)c1cc(F)ccc1Oc1nncnc1N1CCC2(C1)CN([C@H](CCCN[C@H](C)COC)C(C)C)C2)C(C)C.O=C(O)/C=C/C(=O)O` [Compound 112], in data set [4], the half-life is 372 min and the bioavailability is 4%.

Take `CCN(C(=O)c1cc(F)ccc1Oc1nncnc1N1CCC2(C1)CN([C@H](CCCNCCOC)C(C)C)C2)C(C)C` [Compound 397, (R)-N-ethyl-5-fluoro-N-isopropyl-2-((5-(2-(6-((2-methoxyethyl)amino)-2-methylhexan-3-yl)-2,6-diazaspiro[3.4]octan-6-yl)-1,2,4-triazin-6-yl)oxy)benzamide fumarate]: the pIC50 was 7.57 with OCI-AML3 cells (fumarate); 7.82 in the data set with MOLM14 cells (Homo sapiens, MOLM-14, […]); below 4.82 in the data set with KO-52 cells (Homo sapiens, […]). In data set [1], the microsomal CLint at 1 μM was below 7.5 µL/min/mg.

In [4], `CCN(C(=O)c1cc(F)ccc1Oc1nncnc1N1CCC2(C1)CN([C@H](CCCNCCC(F)F)C(C)C)C2)C(C)C.O=C(O)/C=C/C(=O)O` [Compound 114] had a half-life of 570 min and a bioavailability of 8.7%.

Consider `CCN(C(=O)c1cc(F)ccc1Oc1nncnc1N1CCC2(C1)CN([C@H](CCCNC(=O)OC(C)OC(=O)C(C)C)C(C)C)C2)C(C)C` (stereo partly drawn) [Compound 39, 1-((((R)-4-(6-(6-(2-(ethyl(isopropyl)carbamoyl)-4-fluorophenoxy)-1,2,4-triazin-5-yl)-2,6-diazaspiro[3.4]octan-2-yl)-5-methylhexyl)carbamoyl)oxy)ethyl isobutyrate], for which the pIC50 in the data set on OCI-AML3 cells (Homo sapiens, OCI-AML-3, […]) is 6.85; in the data set on MOLM14 cells (Homo sapiens, MOLM-14, […]), 7.57; in [2] (setting [5]), 9.59; in the data set with KO-52 cells (Homo sapiens, […]), below 4.82; against hERG potassium channel, 5.12; in the data set on MEIS1 mRNA (Homo sapiens, MOLM-14, 48 h), 7.36.

For the molecule `CCN(C(=O)c1cc(F)ccc1Oc1nncnc1N1CCC2(C1)CN([C@H](CCCNCC(F)(F)F)C(C)C)C2)C(C)C` [Compound 17, (R)-N-ethyl-5-fluoro-N-isopropyl-2-((5-(2-(2-methyl-6-((2,2,2-trifluoroethyl)amino)hexan-3-yl)-2,6-diazaspiro[3.4]octan-6-yl)-1,2,4-triazin-6-yl)oxy)benzamide], the pIC50 was 5.84 in the data set on OCI-AML3 cells (Homo sapiens, OCI-AML-3, […]); 6.52 in the data set with MOLM14 cells (Homo sapiens, MOLM-14, […]); 9.21 in data set [2] (setting [5]); 5.17 in the data set with KO-52 cells (Homo sapiens, […]); 5.39 against hERG potassium channel; 6.62 with MEIS1 mRNA (Homo sapiens, MOLM-14, 48 h).

Regarding `CCN(C(=O)c1cc(F)ccc1Oc1nncnc1N1CCC2(C1)CN([C@H](CCC(C)(C)NC(C)=O)C(C)C)C2)C(C)C` (single isomer, unassigned) [Compound 34], the pIC50 was 5.46 in the data set with OCI-AML3 cells (Homo sapiens, OCI-AML-3, […]); 5.42 with MOLM14 cells (Homo sapiens, MOLM-14, […]); 9.06 in data set [2] (setting [5]); below 4.82 in the data set on KO-52 cells (Homo sapiens, […]); below 4.52 at hERG potassium channel; below 6.00 in the data set on MEIS1 mRNA (Homo sapiens, MOLM-14, 48 h).
